# Test results published in patent publication US20250250230A1, “HETEROCYCLIC COMPOUND” (TAKEDA PHARMACEUTICAL COMPANY LIMITED, priority 2022, published 2025).
# Molecular target: T1, human orexin type 2 receptor (Homo sapiens, UniProt O43614)
# T1 construct: expressed in transfected cells
# T1 sequence (O43614 1-444): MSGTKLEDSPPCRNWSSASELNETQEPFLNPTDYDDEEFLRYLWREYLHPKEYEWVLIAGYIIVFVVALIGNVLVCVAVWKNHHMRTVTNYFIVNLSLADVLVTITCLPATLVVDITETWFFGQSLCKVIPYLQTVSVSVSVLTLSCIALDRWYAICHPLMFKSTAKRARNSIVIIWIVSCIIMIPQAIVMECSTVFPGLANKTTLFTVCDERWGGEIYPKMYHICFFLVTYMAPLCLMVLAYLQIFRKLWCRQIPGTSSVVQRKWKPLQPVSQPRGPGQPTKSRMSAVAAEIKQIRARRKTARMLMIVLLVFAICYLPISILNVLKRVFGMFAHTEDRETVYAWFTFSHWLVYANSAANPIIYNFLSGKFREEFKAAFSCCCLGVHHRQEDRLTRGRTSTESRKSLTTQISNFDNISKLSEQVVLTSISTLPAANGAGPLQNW
# Assay: Measurement of orexin type 2 receptor agonist activity (calcium fluorescence, Fluo-4 AM, FDSS)
# Format: cell-based
# Settings: test compound 3 μM; CHO cells expressing human OX2 receptor; DMSO = 0%, orexin A (human) = 100%
# Text: To obtain a cell clone stably expressing human orexin type 2 receptor, human orexin type 2 receptor cDNA was inserted into pcDNA3.1(+) plasmid vector (Invitrogen), and a plasmid DNA for expression of human orexin type 2 receptor (pcDNA3.1(+)/hOX2R) was cloned. The plasmid DNA was introduced into CHO-K1 cell by an electroporation method, and human orexin type 2 receptor expressing clone cells were obtained by limiting dilution method by using G418 drug resistance as a selection marker.
# CHO cells forcibly expressing human OX2 receptor were seeded in each well of 384 well black transparent bottom plate (BD Falcon) at 10,000 cells/well, and cultured for one day in a 5% CO2 incubator at 37° C. After removal of the medium in the cell plate, assay buffer A containing a calcium indicator (HBSS (Thermo Fisher Scientific), 20 mM HEPES (Thermo Fisher Scientific), 0.1% BSA (Sigma-Aldrich), 2.5 μg/mL Fluo-4 AM (DOJINDO Chemical), 0.08% Pluronic F127 (DOJINDO Chemical), 1.25 mM probenecid (DOJINDO Chemical)) was added at 30 μL/well. The plate was stood for 30 min in a 5% CO2 incubator at 37° C., and further stood at room temperature for 30 min. A test compound prepared by diluting with assay buffer B (HBSS, 20 mM HEPES, 0.1% BSA) was added at 10 μL/well, and the fluorescence value was measured by FDSSμCELL (Hamamatsu Photonics K.K.) every one sec for 1 min, and thereafter every two sec for […]. The activity (%) of the test compound was calculated assuming that variation in the fluorescence value when DMSO was added instead of the test compound was 0%, and variation in the fluorescence value when orexin A (human) (PEPTIDE INSTITUTE, INC.) was added at the final concentration of 10 nM was 100%.
row,"OX2R agonist activity (3 μM, %) [%]",SMILES
1,102,"CS(=O)(=O)NC1CCN(C(=O)C2CC2c2ccccc2-c2c(F)cccc2F)C1 (racemic) [Example 4, a mixture of rac-N-{(3R)-1-[(1R,2R)-2-(2′,6′-difluoro[1,1′-biphenyl]-2-yl)cyclopropane-1-carbonyl]pyrrolidin-3-yl}methanesulfonamide and rac-N-{(3S)-1-[(1R,2R)-2-(2′,6′-difluoro[1,1′-biphenyl]-2-yl)cyclopropane-1-carbonyl]pyrrolidin-3-yl}methanesulfonamide]"
2,103,"CCS(=O)(=O)NC1CCCN(C(=O)C2CC2c2ccccc2-c2c(F)cccc2F)C1 (racemic) [Example 28, a mixture of rac-N-{(3R)-1-[(1R,2R)-2-(2′,6′-difluoro[1,1′-biphenyl]-2-yl)cyclopropane-1-carbonyl]piperidin-3-yl}ethanesulfonamide and rac-N-{(3S)-1-[(1R,2R)-2-(2′,6′-difluoro[1,1′-biphenyl]-2-yl)cyclopropane-1-carbonyl]piperidin-3-yl}ethanesulfonamide]"
3,102,"CS(=O)(=O)NC1CCCN(C(=O)C2CC2c2c(F)cccc2-c2c(F)cccc2F)CC1 (racemic) [Example 32, a mixture of rac-N-{(4R)-1-[(1R,2R)-2-(2′,3,6′-trifluoro[1,1′-biphenyl]-2-yl)cyclopropane-1-carbonyl]azepan-4-yl}methanesulfonamide and rac-N-{(4S)-1-[(1R,2R)-2-(2′,3,6′-trifluoro[1,1′-biphenyl]-2-yl)cyclopropane-1-carbonyl]azepan-4-yl}methanesulfonamide]"
4,101,"O=C(C1CC1c1ccccc1-c1c(F)cccc1F)N1CCC(NS(=O)(=O)C2CC2)C1 (racemic) [Example 37, a mixture of rac-N-{(3R)-1-[(1R,2R)-2-(2′,6′-difluoro[1,1′-biphenyl]-2-yl)cyclopropane-1-carbonyl]pyrrolidin-3-yl}cyclopropanesulfonamide and rac-N-{(3S)-1-[(1R,2R)-2-(2′,6′-difluoro[1,1′-biphenyl]-2-yl)cyclopropane-1-carbonyl]pyrrolidin-3-yl}cyclopropanesulfonamide]"
5,106,"CS(=O)(=O)NC1CCCN(C(=O)C2CC2c2ccccc2-c2c(F)cccc2F)CC1 (racemic) [Example 38, a mixture of rac-N-{(4R)-1-[(1R,2R)-2-(2′,6′-difluoro[1,1′-biphenyl]-2-yl)cyclopropane-1-carbonyl]azepan-4-yl}methanesulfonamide and rac-N-{(4S)-1-[(1R,2R)-2-(2′,6′-difluoro[1,1′-biphenyl]-2-yl)cyclopropane-1-carbonyl]azepan-4-yl}methanesulfonamide]"
6,102,"CS(=O)(=O)NC1CCCN(C(=O)C2CC2c2ccccc2-c2c(F)cccc2F)C1 (racemic) [Example 39, a mixture of rac-N-{(3R)-1-[(1R,2R)-2-(2′,6′-difluoro[1,1′-biphenyl]-2-yl)cyclopropane-1-carbonyl]piperidin-3-yl}methanesulfonamide and rac-N-{(3S)-1-[(1R,2R)-2-(2′,6′-difluoro[1,1′-biphenyl]-2-yl)cyclopropane-1-carbonyl]piperidin-3-yl}methanesulfonamide]"

# More lines, now with the values behind:
row,SMILES,"OX2R agonist activity (3 μM, %) [%]"
1,"Cc1nnc(C2(NS(C)(=O)=O)CCN(C(=O)[C@@H]3C[C@@]3(F)c3ccccc3-c3c(F)cccc3F)C2)o1 (mixture of isomers) [Example 422, a mixture of N-[(3R)-1-[(1S,2S)-2-(2′,6′-difluoro[1,1′-biphenyl]-2-yl)-2-fluorocyclopropane-1-carbonyl]-3-(5-methyl-1,3,4-oxadiazol-2-yl)pyrrolidin-3-yl]methanesulfonamide and N-[(3S)-1-[(1S,2S)-2-(2′,6′-difluoro[1,1′-biphenyl]-2-yl)-2-fluorocyclopropane-1-carbonyl]-3-(5-methyl-1,3,4-oxadiazol-2-yl)pyrrolidin-3-yl]methanesulfonamide]",75
2,"Cc1cccc(F)c1-c1ccccc1C1CC1C(=O)N1CCC(NS(C)(=O)=O)C1 (racemic) [Example 3, a mixture of rac-N-{(3R)-1-[(1R,2R)-2-(2′-fluoro-6′-methyl[1,1′-biphenyl]-2-yl)cyclopropane-1-carbonyl]pyrrolidin-3-yl}methanesulfonamide and rac-N-{(3S)-1-[(1R,2R)-2-(2′-fluoro-6′-methyl[1,1′-biphenyl]-2-yl)cyclopropane-1-carbonyl]pyrrolidin-3-yl}methanesulfonamide]",81
3,"CS(=O)(=O)NC1CCN(C(=O)C2CC2c2ccccc2-c2ccc(F)cc2F)C1 (racemic) [Example 10, a mixture of rac-N-{(3R)-1-[(1R,2R)-2-(2′,4′-difluoro[1,1′-biphenyl]-2-yl)cyclopropane-1-carbonyl]pyrrolidin-3-yl}methanesulfonamide and rac-N-{(3S)-1-[(1R,2R)-2-(2′,4′-difluoro[1,1′-biphenyl]-2-yl)cyclopropane-1-carbonyl]pyrrolidin-3-yl}methanesulfonamide]",80
4,"CS(=O)(=O)NC1CCN(C(=O)C2CC2c2ccccc2-c2ccccc2F)C1 (racemic) [Example 12, a mixture of rac-N-{(3R)-1-[(1R,2R)-2-(2′-fluoro[1,1′-biphenyl]-2-yl)cyclopropane-1-carbonyl]pyrrolidin-3-yl}methanesulfonamide and rac-N-{(3S)-1-[(1R,2R)-2-(2′-fluoro[1,1′-biphenyl]-2-yl)cyclopropane-1-carbonyl]pyrrolidin-3-yl}methanesulfonamide]",66
5,"CS(=O)(=O)NC1CCN(C(=O)C2CC2c2ccccc2-c2c(F)cccc2Cl)C1 (racemic) [Example 15, a mixture of rac-N-{(3R)-1-[(1R,2R)-2-(2′-chloro-6′-fluoro[1,1′-biphenyl]-2-yl)cyclopropane-1-carbonyl]pyrrolidin-3-yl}methanesulfonamide and rac-N-{(3S)-1-[(1R,2R)-2-(2′-chloro-6′-fluoro[1,1′-biphenyl]-2-yl)cyclopropane-1-carbonyl]pyrrolidin-3-yl}methanesulfonamide]",92
6,"CS(=O)(=O)NC1CCN(C(=O)C2CC2c2c(F)cccc2-c2c(F)cccc2F)C1 (racemic) [Example 26, a mixture of rac-N-{(3R)-1-[(1R,2R)-2-(2′,3,6′-trifluoro[1,1′-biphenyl]-2-yl)cyclopropane-1-carbonyl]pyrrolidin-3-yl}methanesulfonamide and rac-N-{(3S)-1-[(1R,2R)-2-(2′,3,6′-trifluoro[1,1′-biphenyl]-2-yl)cyclopropane-1-carbonyl]pyrrolidin-3-yl}methanesulfonamide]",104
7,"CCS(=O)(=O)NC1CCN(C(=O)C2CC2c2ccccc2-c2c(F)cccc2F)C1 (racemic) [Example 27, a mixture of rac-N-{(3R)-1-[(1R,2R)-2-(2′,6′-difluoro[1,1′-biphenyl]-2-yl)cyclopropane-1-carbonyl]pyrrolidin-3-yl}ethanesulfonamide and rac-N-{(3S)-1-[(1R,2R)-2-(2′,6′-difluoro[1,1′-biphenyl]-2-yl)cyclopropane-1-carbonyl]pyrrolidin-3-yl}ethanesulfonamide]",98
8,"CS(=O)(=O)NC1CCCN(C(=O)C2CC2c2c(F)cccc2-c2c(F)cccc2F)C1 (racemic) [Example 31, a mixture of rac-N-{(3R)-1-[(1R,2R)-2-(2′,3,6′-trifluoro[1,1′-biphenyl]-2-yl)cyclopropane-1-carbonyl]piperidin-3-yl}methanesulfonamide and rac-N-{(3S)-1-[(1R,2R)-2-(2′,3,6′-trifluoro[1,1′-biphenyl]-2-yl)cyclopropane-1-carbonyl]piperidin-3-yl}methanesulfonamide]",101
9,"CS(=O)(=O)NCC1CCN(C(=O)C2CC2c2ccccc2-c2c(F)cccc2F)C1 (racemic) [Example 40, a mixture of rac-N-({(3R)-1-[(1R,2R)-2-(2′,6′-difluoro[1,1′-biphenyl]-2-yl)cyclopropane-1-carbonyl]pyrrolidin-3-yl}methyl)methanesulfonamide and rac-N-({(3S)-1-[(1R,2R)-2-(2′,6′-difluoro[1,1′-biphenyl]-2-yl)cyclopropane-1-carbonyl]pyrrolidin-3-yl}methyl)methanesulfonamide]",77
